Like-named read-outs stand apart in the source and are kept apart here.

Results on two compounds are retold here after paper PMC12785453, “Oral Fluid Concentrations and Pharmacological Effects of Clephedrone and Methylone in Humans” (International Journal of Molecular Sciences, 2025).

The conditions of series [1]: cited from earlier work.
Series [2] in a line: Oral fluid concentrations of clephedrone (GC-MS/MS). The series is classed as in vivo, humans. The following applies: both sexes, human, 100 or 150 mg oral. As for the experimental part: This study consisted of one experimental session in which participants (N = 8; 6 women, 2 men) selected their oral dose of clephedrone based on their drug use experience and preferences. According to their dose selection, 3 women and 1 man ingested 100 mg of clephedrone, while the remaining 3 women and 1 man opted for a higher dose of 150 mg. […] Participants were recruited by word of mouth by the harm reduction organization Energy Control in Barcelona (Associació Benestar i Desenvolupament, ABD).
(§1) In both studies, oral fluid samples for the quantification of clephedrone and methylone concentration were collected using Salivette standard tubes. For clephedrone, oral fluid samples were collected at baseline, 0.50, 1, 1.5, 2, 3, 4, and 5 h, whereas for methylone, they were collected at baseline, 0.25, 0.50, 0.75, 1, 1.5, 2, 3, 4, 6, 8, and 10 h. After collection, all samples were centrifuged and stored frozen at −20 °C until analysis. Clephedrone oral fluid concentrations were determined using a previously validated gas chromatography coupled to mass spectrometry systems (GC-MS/MS). Methylone was quantified via liquid chromatography–tandem mass spectrometry (LC–MS/MS).
For oral fluid concentrations of clephedrone and methylone, only a descriptive analysis was performed to obtain the main pharmacokinetics data, including the maximum concentration (Cmax), the time required to reach maximum concentrations (Tmax), and AUC up to 5 h (AUC0–5h) for clephedrone and up to 6 h (AUC0–6h) for methylone. These parameters were calculated using the Pharmacokinetic Functions for Microsoft Excel (Joel Usansky, Atul Desai, and Diane Tang-Liu, Department of Pharmacokinetics and Drug Metabolism, Allergan, Irvine, CA, USA). Oral cortisol concentrations after clephedrone were analyzed using Dunnett’s multiple comparison test (each time point with baseline).

For series [3] the following is noted: cited from earlier work. The source holds these as a separate data set.
The subject of series [4] is healthy male participants. Kind of series: Subjective effects, ARCI short form, methylone trial. The series is classed as in vivo, humans. The settings on record: 150 or 200 mg oral. How it is done: (§2) Methylone pharmacology was evaluated in a study designed as a randomized, double-blind, placebo-controlled, crossover clinical trial. Four pilot studies were conducted administering methylone at oral doses of 50 (n = 3), 100 (n = 6), 150 (n = 5), and 200 mg (n = 7). Participants attended 3 experimental sessions separated by a one-week wash-out period and received two doses of methylone (one dose per experimental session) compared to placebo, except in the last pilot study in which participants received one dose of methylone, compared to MDMA and placebo. However, in this manuscript, only the results corresponding to the highest methylone doses (n = 12; 150 and 200 mg; mean dose = 179.2 mg) are presented, to enable comparison with clephedrone self-administration. Participants were recruited by word of mouth in the volunteer database of the clinical pharmacology unit.
Methylone hydrochloride of high purity in powder form was acquired from LGC Standards (Teddington, UK) for the controlled study. The Pharmacy Department of the Hospital Universitari Germans Trias i Pujol was responsible for manufacturing, storing, and dispensing identical and opaque soft gelatin capsules containing 50 mg of methylone or a placebo (maltodextrin). Treatment consisted of 5 capsules that combined methylone and/or a placebo to reach the target dose. Details can be found in the previous article.
Subjective effects were evaluated with visual analog scales (VAS), the short form of the Addiction Research Center Inventory (ARCI), and the Evaluation of Subjective Effects of Substances with Abuse Potential questionnaire (VESSPA-SSE). In addition, the Sensitivity to Drug Reinforcement Questionnaire (SDRQ) and a pharmacological identification class questionnaire were used in the controlled study administering methylone.
The validated ARCI 49-item short form was used to evaluate and discriminate the subjective following five subscales that correspond to different classes of drugs of abuse: pentobarbital-chlorpromazine-alcohol group (PCAG) is susceptible to sedative effects, morphine-benzedrine group (MBG) is susceptible to euphoric effects, lysergic acid diethylamide (LSD) is susceptible to dysphoria and somatic symptoms, benzedrine (BG) is susceptible to intellectual efficiency and energy, and amphetamine (A) is susceptible to amphetamine-like effects.
Participants included in the naturalistic clephedrone study completed VAS at baseline, 0.50, 1, 1.5, 2, 3, 4, and 5 h, and ARCI and VESSPA at baseline, 1, 2, 3, 4, and 5 h after self-administering clephedrone. In the controlled study, VAS was performed at baseline and 0.25, 0.50, 0.75, 1, 1.5, 2, 3, 4, 6, 8, 10, and 24 h, and ARCI and VESSPA at baseline and 1, 2, 3, 4, 6, 8, and 10 h after administering methylone. Participants completed SDRQ and VAS sexual desire and arousal at baseline, 1 and 10 h, and the pharmacological class identification questionnaire at 8 h.
For statistical analysis, values of physiological (SBP, DBP, HR, and T) and subjective effects (VAS, ARCI, and VESSPA-SSE) were baseline–adjusted. Maximum effects (Emax) and the time needed to reach maximum effects (Tmax) were determined, and the area under the curve up to 5 h (AUC0–5h) for clephedrone and up to 6 h (AUC0–6h) for methylone was calculated using the trapezoidal rule. Emax and AUC values are presented as mean ± standard deviation, whereas Tmax is presented in median (range).
To find possible significant changes through the time course compared to baseline, a Dunnett multiple comparison test was carried out to compare each time point with baseline in both drug conditions. For clephedrone the comparisons were 0–0.5 h, 0–1 h, 0–1.5 h, 0–2 h, 0–3 h, 0–4 h and 0–5 h, and for methylone this analysis included 0–0.25 h, 0–0.5 h, 0–0.75 h, 0–1 h, 0–1.5 h, 0–2 h, 0–3 h, 0–4 h and 0–6 h. Given their different study designs, no comparative analysis between the time courses of both synthetic cathinones was conducted.

A short description of series [5]: Oral fluid concentrations of methylone (LC-MS/MS). The series is classed as in vivo, humans. The settings on record: 150 or 200 mg oral. How it is done:
as §2, §1
For oral fluid concentrations of clephedrone and methylone, only a descriptive analysis was performed to obtain the main pharmacokinetics data, including the maximum concentration (Cmax), the time required to reach maximum concentrations (Tmax), and AUC up to 5 h (AUC0–5h) for clephedrone and up to 6 h (AUC0–6h) for methylone. These parameters were calculated using the Pharmacokinetic Functions for Microsoft Excel (Joel Usansky, Atul Desai, and Diane Tang-Liu, Department of Pharmacokinetics and Drug Metabolism, Allergan, Irvine, CA, USA). […]

By Cmax is commonly meant the peak of the concentration-time curve. As usually defined, the Tmax is the time at which the peak concentration occurs. Turning to `CNC(C)C(=O)c1ccc(Cl)cc1` (centres unmarked) [Clephedrone, 4-chloromethcathinone], the “Blood concentrations, mean” value in series [1] (fatal cases) is 0.547 µg/mL. Also, the “Blood concentrations, mean” value in series [1] (traffic controls, non-fatal cases (n = 9)) is 0.0211 µg/mL. In series [2] (n=8), the Cmax worked out at 6.41 ± 3.49 µg/mL and the Tmax was 3 h. Moreover, the AUC(0-t) in series [2] (n=8, read-out: Oral fluid AUC0–5 h) turned out to be 10.7 µg·h/mL.
Regarding `CNC(C)C(=O)c1ccc2c(c1)OCO2` (centres unmarked) [Methylone, 3,4-methylenedioxy-N-methylcathinone], in series [3], the Tmax in plasma was 2 h. Also, in series [4], the “Tmax of effects collected using ARCI” value stood at 1 h. Moreover, in series [4] (n=12), the “ARCI A (amphetamine-like effects) Emax” value was found to be 2.92 ± 1.73 points, the “ARCI BG (intellectual efficiency) Emax” value is 1.50 ± 1.09 points, the “ARCI LSD (dysphoria) Emax” value is “–0.25 ± 1.29 points” and the “ARCI MBG (euphoria) Emax” value was found to be 5.92 ± 4.68 points. In series [4] (n=12), the “ARCI PCAG (sedation) Emax” value came out at 2.17 ± 3.49 points. Further, in series [4] (AUC0–6h, n=12), the “ARCI A (amphetamine-like effects) AUC0-5/6 h” value turned out to be 4.33 ± 2.77 points·h, the “ARCI BG (intellectual efficiency) AUC0-5/6 h” value is recorded as 0.83 ± 1.81 points·h, the “ARCI LSD (dysphoria) AUC0-5/6 h” value is “–0.96 ± 1.81 points·h” and the “ARCI MBG (euphoria) AUC0-5/6 h” value is reported as 8.25 ± 6.89 points·h. The “ARCI PCAG (sedation) AUC0-5/6 h” value in series [4] (AUC0–6h, n=12) worked out at 5.46 ± 8.86 points·h. In series [5] (6 h), the “Oral fluid concentration at 6 h, times lower than Cmax” value turned out to be 11 times. The same compound returned a Cmax in series [5] (human, oral fluid, n=12) of 17.2 µg/mL. For the same compound, the AUC(0-t) in series [5] (human, oral fluid, n=12, read-out: Oral fluid AUC0–6 h) is 44.7 µg·h/mL.
